Data on 2 compounds can be found in patent US11547681B2, “N-acylethanolamide derivatives and uses thereof” (ELIEM THERAPEUTICS, INC., priority 2016, dated 2023).

Each structure is given as a SMILES string.

A short description of the series: in vitro. Conditions: for Measured concentration of PEA (analyte) / % Remaining of Initial / microsomal CLint at 1 μM / half-life at 1 μM / microsomal CLint / half-life: male; for Measured concentration of PEA (analyte) / % Remaining of Initial: 1 μM; for % Remaining of Initial / microsomal CLint at 1 μM / half-life at 1 μM / microsomal CLint / half-life: microsomes. How it is done:
(§1) Reaction mixture, minus cofactors, was prepared as described below. Test article was added into the reaction mixture at a final concentration of 1 μM. […] An aliquot of the reaction mixture (without cofactor) was equilibrated in a shaking water bath at 37° C. for 3 minutes. The reaction was initiated by the addition of cofactor, and the mixture was incubated in a shaking water bath at 37° C. Aliquots (100 μL) were withdrawn at 0, 10, 20, 30, and 60 minutes. Test article samples were immediately combined with 300 μL of ice-cold acetonitrile containing 1% formic acid. Control samples were immediately combined with 400 μL of ice-cold 50/50 acetonitrile (ACN)/dH2O containing 0.1% formic acid and internal standard to terminate the reaction. Samples were then mixed and centrifuged to precipitate proteins. Calibration standards were prepared in matched matrix. Samples and standards were assayed by LC-MS/MS using electrospray ionization for both dosed prodrug and expected drug (PEA). Analytical conditions are outlined in Appendix 8-1. Test article concentration at each time point was compared to test article concentration at time 0 to determine the percent remaining at each time point. Half-lives were calculated using GraphPad software, fitting to a single-phase exponential decay equation.
Reaction mixture, minus cofactors, was prepared as described below. Test article was added into the reaction mixture at a final concentration of 1 μM. […] An aliquot of the reaction mixture (without cofactor) was equilibrated in a shaking water bath at 37° C. for 5 minutes. Reaction was initiated by the addition of cofactor, and the mixture was incubated in a shaking water bath at 37° C. Aliquots (100 μL) were withdrawn at 0, 10, 20, 30, and 60 minutes. Test article samples were immediately combined with 300 μL of ice-cold acetonitrile containing 1% formic acid. Control samples were immediately combined with 400 μL of ice-cold 50/50 acetonitrile (ACN)/dH2O containing 0.1% formic acid and internal standard to terminate the reaction. Samples were then mixed and centrifuged to precipitate proteins. Calibration standards were prepared in matched matrix. Samples and standards were assayed by LC-MS/MS using electrospray ionization for both the dosed prodrug and the expected drug (PEA). Analytical conditions are outlined in Appendix 10-1. Test article concentration at each time point was compared to the test article concentration at time 0 to determine the percent remaining at each time point. Half-lives were calculated using GraphPad software, fitting to a single-phase exponential decay equation.
as §1, with “minutes. Reaction” for “minutes. The reaction”, “300 μL,” for “300 μL”, “Appendix 13-1.” for “Appendix 8-1.”
Reaction mixture, minus cofactors, was prepared as described below.

[1] abbreviates: Beagle, dog, calculated value in parentheses.
Setting [2] is: CD-1, mouse, calculated value in parentheses.
[3] abbreviates: Beagle, Control Compound, Dog liver microsomes.
Setting [4] is: Beagle, Control compound, Dog liver microsomes.
Where [5] appears, read: Beagle, control compound, dog liver microsomes.
Where [6] appears, read: CD-1, mouse, Control Compound, Mouse liver microsomes.

In the case of `CCCCCCCCCCCCCCCC(=O)NCCOC(=O)CCC(=O)OC(COC(=O)CCC)COC(=O)CCC` [Compound I-16], the “Measured concentration of PEA (analyte)” value runs as follows: (Beagle, dog, 0 min) 0.053 µM; (Beagle, dog, 10 min) 0.59 µM; (Beagle, dog, 20 min) 0.48 µM; (Beagle, dog, 30 min) 0.43 µM; (Beagle, dog, 60 min) 0.20 µM; (CD-1, mouse, 0 min) 0.29 µM. Besides, the “Measured concentration of PEA (analyte)” value stood at 0.27 µM (CD-1, mouse, 10 min); 0.12 µM (CD-1, mouse, 20 min); 0.089 µM (CD-1, mouse, 30 min); 0.0093 µM (CD-1, mouse, 60 min). The “% Remaining of Initial” value reads like this: (Beagle, dog, 0 h) 100%; (Beagle, dog, 10 min) 4.4%; (Beagle, dog, 20 min) 1.6%; (Beagle, dog, 0.5 h) 1.4%; (Beagle, dog, 1 h) 1.5%; (CD-1, mouse, 0 h) 100%. Besides, the “% Remaining of Initial” value worked out at 7.6% (CD-1, mouse, 10 min); 3.0% (CD-1, mouse, 20 min); 2.1% (CD-1, mouse, 0.5 h); 1.8% (CD-1, mouse, 1 h). For the same compound, the intrinsic metabolic clearance (microsomal CLint) (as a rule, the rate of metabolic loss divided by the concentration) at 1 μM (Beagle, dog) is over 139 µL/min/mg; the intrinsic metabolic clearance (microsomal CLint) at 1 μM under setting [1] is 618 µL/min/mg; the microsomal CLint at 1 μM (CD-1, mouse) was over 139 µL/min/mg; the intrinsic metabolic clearance (microsomal CLint) at 1 μM under setting [2] was 503 µL/min/mg. Further, the half-life (commonly the time in which the quantity being followed falls by half) at 1 μM was under 10 min (Beagle, dog); 2.2 min under setting [1]; under 10 min (CD-1, mouse); 2.8 min under setting [2].
For the compound `C[C@]12CC[C@H]3[C@@H](CCC4=CC(=O)CC[C@@]43C)[C@@H]1CC[C@@H]2O` [Testosterone, testosterone, reference compound], the Half-life (control compound, mouse liver microsomes) was determined as 2.1 min. Further, the intrinsic metabolic clearance (microsomal CLint) reads like this: under setting [3], 41.9 µL/min/mg; under setting [4], 41.5 µL/min/mg; (Beagle, Dog liver microsomes, control compound) 41.9 µL/min/mg; under setting [5], 59.3 µL/min/mg; under setting [6], 444 µL/min/mg; (CD-1, mouse, Mouse liver microsomes, control compound) 190 µL/min/mg. This compound had an intrinsic clearance (microsomal CLint) (CD-1, mouse, control compound, mouse liver microsomes) of 674 µL/min/mg. In addition, the half-life is, setting by setting: under setting [3], 33 min; under setting [4], 33 min; under setting [5], 23 min; under setting [6], 3.1 min; (CD-1, mouse, Control compound, Mouse liver microsomes) 4.9 min. Further, the half-life at 1 μM reads like this: (Beagle, Dog liver microsomes) 33 min; (CD-1, mouse, Mouse liver microsomes) 7.3 min.
